Reference: ChEMBL document CHEMBL1201862, “PubChem BioAssay data set” (2004)
Active and inactive are the calls of the source.

What was measured:
[1] = A Cell Based Secondary Assay To Explore Cytotoxicity of Compounds that Sensitize Mycobacterium Tuberculosis to Beta-Lactam Antibiotics.; type: functional
Cytochrome P450 2C19 = Cytochrome P450 2C19 (Homo sapiens, UniProt P33261); assay: Cytochrome panel assay with activity outcomes. Panel member name: p450-cyp2c19 Compounds with AC50 equal or less than 10 uM are considered active; type: functional
Chain of Cytochrome P450 2C19 (P33261 whole entry): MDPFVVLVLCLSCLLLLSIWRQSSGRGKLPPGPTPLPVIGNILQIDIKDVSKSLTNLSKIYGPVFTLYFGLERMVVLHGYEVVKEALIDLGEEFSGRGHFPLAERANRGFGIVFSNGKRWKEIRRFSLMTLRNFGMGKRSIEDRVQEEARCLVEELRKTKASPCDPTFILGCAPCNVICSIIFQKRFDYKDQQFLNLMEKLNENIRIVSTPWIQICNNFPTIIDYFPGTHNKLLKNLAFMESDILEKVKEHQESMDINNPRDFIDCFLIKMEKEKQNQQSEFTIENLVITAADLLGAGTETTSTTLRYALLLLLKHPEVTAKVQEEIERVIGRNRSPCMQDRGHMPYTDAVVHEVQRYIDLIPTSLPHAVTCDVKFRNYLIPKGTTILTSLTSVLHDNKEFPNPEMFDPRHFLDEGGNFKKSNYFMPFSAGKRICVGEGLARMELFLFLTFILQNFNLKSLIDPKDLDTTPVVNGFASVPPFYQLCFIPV

Cytochrome P450 2C9 = Cytochrome P450 2C9 (Homo sapiens, UniProt P11712)
Chain of Cytochrome P450 2C9 (P11712 whole entry): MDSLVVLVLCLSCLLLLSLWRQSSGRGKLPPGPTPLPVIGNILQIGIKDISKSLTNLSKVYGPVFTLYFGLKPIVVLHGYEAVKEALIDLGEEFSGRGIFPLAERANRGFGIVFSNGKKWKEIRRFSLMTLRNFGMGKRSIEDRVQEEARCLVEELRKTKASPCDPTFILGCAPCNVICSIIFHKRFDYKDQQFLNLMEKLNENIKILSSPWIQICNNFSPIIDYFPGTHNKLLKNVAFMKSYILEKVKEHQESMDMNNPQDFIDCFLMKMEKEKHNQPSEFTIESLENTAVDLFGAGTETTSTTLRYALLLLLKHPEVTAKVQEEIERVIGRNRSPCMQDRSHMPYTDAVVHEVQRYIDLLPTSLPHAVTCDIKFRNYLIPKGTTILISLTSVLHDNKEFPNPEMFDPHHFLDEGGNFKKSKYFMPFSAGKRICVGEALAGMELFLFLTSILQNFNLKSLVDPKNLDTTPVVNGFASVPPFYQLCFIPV

Cytochrome P450 1A2 = target: T1, Cytochrome P450 1A2 (Homo sapiens, UniProt P05177);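 note: PubChem cytochrome P450 panel assay, CYP1A2 panel member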
T1 sequence (P05177 whole entry): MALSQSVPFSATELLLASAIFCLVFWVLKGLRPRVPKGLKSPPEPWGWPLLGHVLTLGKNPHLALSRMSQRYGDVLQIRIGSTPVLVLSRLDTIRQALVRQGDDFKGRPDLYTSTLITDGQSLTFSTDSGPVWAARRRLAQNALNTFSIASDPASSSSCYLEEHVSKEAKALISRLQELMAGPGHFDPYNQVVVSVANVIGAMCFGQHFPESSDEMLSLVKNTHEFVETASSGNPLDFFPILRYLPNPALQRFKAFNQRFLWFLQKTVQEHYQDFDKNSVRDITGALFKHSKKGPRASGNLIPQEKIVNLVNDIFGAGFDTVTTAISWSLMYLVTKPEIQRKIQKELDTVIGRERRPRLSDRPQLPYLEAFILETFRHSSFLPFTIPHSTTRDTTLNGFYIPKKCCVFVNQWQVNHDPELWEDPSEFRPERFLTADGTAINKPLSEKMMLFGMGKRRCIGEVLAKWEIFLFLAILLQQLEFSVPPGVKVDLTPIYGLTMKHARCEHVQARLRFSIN

BJ [2] = assay: BJ-TERT fibroblast viability loss – cell-based, RAS-independent, luminescence, dose response (AID 1933); type: functional; conditions: Homo sapiens
BJ [3] = assay: BJ-TERT-LT-ST fibroblast viability loss – cell-based, RAS-independent, luminescence, dose response (AID 1935); type: functional; conditions: Homo sapiens;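 note: BJ fibroblasts immortalized with TERT plus LT and ST oncogenes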
[4] = DRD fibroblast viability loss – cell-based, non-viral oncogenic, luminescence, dose response (AID 1934); type: functional; conditions: Homo sapiens
[5] = target: T2, Calpain-2 catalytic subunit (Sus scrofa, UniProt P43367); assay: m-calpain protease blockers, concentration series – biochemical, fluorogenic peptide substrate, dose response (AID 1420); type: functional
T2 sequence (P43367 whole entry): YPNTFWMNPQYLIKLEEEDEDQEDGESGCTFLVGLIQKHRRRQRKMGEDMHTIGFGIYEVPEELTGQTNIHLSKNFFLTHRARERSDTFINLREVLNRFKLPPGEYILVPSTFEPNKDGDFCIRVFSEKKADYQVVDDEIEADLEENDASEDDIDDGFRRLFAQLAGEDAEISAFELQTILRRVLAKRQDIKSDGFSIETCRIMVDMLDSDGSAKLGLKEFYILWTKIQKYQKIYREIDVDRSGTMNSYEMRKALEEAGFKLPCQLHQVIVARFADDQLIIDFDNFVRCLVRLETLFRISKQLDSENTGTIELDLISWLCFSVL

BJ [6] = assay: cells; type: functional, cell-based; conditions: Homo sapiens
[7] = target: T3, DNA repair and recombination protein RAD54-like (Homo sapiens, UniProt Q92698); assay: RAD54 Holliday junction migration blockers – biochemical, fluorescence, cherry-picked samples, dose series, confirmation (AID 651657); type: functional
T3 sequence (Q92698 whole entry): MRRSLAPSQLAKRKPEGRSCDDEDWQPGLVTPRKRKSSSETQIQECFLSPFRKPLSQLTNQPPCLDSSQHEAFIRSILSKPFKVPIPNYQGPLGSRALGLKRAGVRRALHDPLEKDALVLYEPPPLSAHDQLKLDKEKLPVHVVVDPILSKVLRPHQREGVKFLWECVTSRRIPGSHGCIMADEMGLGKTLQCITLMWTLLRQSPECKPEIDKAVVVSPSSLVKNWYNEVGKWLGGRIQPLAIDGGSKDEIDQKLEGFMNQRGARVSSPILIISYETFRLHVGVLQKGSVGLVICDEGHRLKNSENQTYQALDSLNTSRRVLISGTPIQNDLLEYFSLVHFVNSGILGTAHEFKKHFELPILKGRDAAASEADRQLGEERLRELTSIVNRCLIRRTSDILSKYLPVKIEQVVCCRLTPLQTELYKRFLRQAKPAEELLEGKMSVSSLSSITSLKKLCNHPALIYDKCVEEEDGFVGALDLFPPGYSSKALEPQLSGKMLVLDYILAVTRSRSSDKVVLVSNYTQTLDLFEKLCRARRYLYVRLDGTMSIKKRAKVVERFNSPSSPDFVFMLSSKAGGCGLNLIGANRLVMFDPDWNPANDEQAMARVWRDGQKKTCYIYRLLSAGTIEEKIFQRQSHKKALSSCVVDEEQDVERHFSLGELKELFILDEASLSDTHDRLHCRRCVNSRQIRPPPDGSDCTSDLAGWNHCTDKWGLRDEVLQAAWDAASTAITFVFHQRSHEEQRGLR

[8] = target: T4, DNA repair protein RAD52 homolog (Homo sapiens, UniProt P43351); type: functional, biochemical
T4 sequence (P43351 whole entry): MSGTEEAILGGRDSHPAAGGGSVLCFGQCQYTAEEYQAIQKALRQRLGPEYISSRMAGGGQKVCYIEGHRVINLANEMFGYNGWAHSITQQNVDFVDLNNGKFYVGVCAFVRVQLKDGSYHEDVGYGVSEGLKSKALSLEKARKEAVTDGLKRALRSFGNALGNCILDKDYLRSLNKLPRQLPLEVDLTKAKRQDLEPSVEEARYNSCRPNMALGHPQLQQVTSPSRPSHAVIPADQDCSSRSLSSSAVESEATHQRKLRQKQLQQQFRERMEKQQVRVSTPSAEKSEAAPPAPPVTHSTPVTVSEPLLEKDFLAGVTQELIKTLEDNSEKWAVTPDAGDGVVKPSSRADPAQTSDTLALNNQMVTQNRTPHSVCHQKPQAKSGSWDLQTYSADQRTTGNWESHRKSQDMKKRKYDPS

[9] = Luminescence-based cell-based high throughput dose response assay to identify activators of the DAF-12 from the parasite S. stercoralis (ssDAF-12).; type: functional
[10] = blockers of HIV-1 ZM109 envelope-driven cell-cell fusion – HeLa effector, CEM target cells, luciferase, cherry-pick, dose response (AID 652058); type: functional, cell-based;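 note: luciferase signal from HIV-1 Env mediated cell-cell fusion of effector and target cells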
[11] = blockers of HIV-1 envelope-mediated cell-cell fusion – cherry-pick, dose response (AID 652057); type: functional, cell-based
[12] = HIV-1 AD8 envelope cell-cell fusion blockers – cherry-pick, dose response (AID 652062); type: functional, cell-based;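 note: luciferase signal from cell-cell fusion driven by HIV-1 clade B AD8 Env; potency is for inhibitors of fusion seen as a drop in luminescence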
Protein skinhead-1 = target: T5, Protein skinhead-1 (Caenorhabditis elegans, UniProt P34707); type: functional
T5 sequence (P34707 whole entry): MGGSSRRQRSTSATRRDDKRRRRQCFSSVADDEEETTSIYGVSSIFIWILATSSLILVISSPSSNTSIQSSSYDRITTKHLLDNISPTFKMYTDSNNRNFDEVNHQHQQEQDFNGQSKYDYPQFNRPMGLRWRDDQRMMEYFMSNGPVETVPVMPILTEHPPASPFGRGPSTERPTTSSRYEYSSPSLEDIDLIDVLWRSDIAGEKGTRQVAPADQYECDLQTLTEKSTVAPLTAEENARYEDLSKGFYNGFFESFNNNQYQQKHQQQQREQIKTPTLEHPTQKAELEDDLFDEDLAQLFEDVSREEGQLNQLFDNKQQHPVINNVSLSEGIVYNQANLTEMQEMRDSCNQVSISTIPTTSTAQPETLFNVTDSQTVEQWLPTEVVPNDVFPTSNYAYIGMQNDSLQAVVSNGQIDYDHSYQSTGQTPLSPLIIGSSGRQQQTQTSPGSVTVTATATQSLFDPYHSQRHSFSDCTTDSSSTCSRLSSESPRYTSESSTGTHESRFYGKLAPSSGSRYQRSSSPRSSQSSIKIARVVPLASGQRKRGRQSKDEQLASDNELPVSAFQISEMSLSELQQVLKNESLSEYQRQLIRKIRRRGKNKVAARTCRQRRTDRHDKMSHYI

Large T antigen = Large T antigen (Simian virus 40, UniProt P03070); type: functional, Betapolyomavirus macacae;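 note: Confirmatory-stage PubChem screen for compounds that inhibit SV40 T antigen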
Chain of Large T antigen (P03070 whole entry): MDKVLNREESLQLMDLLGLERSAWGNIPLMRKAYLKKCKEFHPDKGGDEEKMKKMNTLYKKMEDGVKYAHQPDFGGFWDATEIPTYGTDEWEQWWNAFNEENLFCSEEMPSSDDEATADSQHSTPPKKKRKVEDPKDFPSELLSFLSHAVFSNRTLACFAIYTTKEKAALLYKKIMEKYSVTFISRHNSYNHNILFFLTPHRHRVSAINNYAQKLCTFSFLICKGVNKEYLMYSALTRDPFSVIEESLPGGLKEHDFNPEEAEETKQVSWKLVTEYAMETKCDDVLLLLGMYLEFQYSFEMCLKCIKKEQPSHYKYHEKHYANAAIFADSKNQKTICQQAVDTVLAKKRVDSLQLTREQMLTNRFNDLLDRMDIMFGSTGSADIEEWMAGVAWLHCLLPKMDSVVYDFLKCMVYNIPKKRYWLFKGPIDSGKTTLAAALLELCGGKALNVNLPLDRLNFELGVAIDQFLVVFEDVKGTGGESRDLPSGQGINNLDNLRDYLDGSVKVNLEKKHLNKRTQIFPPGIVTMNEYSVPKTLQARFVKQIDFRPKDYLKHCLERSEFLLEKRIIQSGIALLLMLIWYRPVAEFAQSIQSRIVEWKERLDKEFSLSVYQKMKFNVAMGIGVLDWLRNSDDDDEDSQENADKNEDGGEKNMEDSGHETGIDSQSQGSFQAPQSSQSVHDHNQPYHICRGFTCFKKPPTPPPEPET

Streptokinase A = target: T6, Streptokinase A (Streptococcus pyogenes serotype M1, UniProt P10520); assay: viability-normalized secreted streptokinase activity reduction – plasminogen activation absorbance, OD405, dose response (AID 1914); type: functional, Streptococcus pyogenes M1 GAS;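 note: secreted streptokinase activity via plasminogen activation per viability signal from cell pellet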
T6 sequence (P10520 whole entry): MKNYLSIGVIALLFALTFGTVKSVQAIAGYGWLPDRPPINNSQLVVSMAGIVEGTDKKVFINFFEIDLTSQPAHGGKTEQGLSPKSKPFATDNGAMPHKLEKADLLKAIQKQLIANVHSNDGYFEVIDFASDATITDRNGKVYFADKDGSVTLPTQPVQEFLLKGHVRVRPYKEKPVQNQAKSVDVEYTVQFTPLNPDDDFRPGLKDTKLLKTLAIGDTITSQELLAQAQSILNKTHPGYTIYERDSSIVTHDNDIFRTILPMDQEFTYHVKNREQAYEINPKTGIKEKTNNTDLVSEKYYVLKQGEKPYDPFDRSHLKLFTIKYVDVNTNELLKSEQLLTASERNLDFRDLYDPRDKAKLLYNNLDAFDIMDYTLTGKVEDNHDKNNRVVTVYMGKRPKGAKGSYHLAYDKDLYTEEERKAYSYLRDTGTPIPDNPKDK

[13] = system: Streptococcus sp. 'group A'; assay: Streptococcus pyogenes SK(-)GAS viability under kanamycin – luminescence, BacTiterGlo, confirmation, counter-screen for streptokinase expression inhibitor project, dose response (AID 1900); type: functional, organism-based
[14] = Luminescence Cell-Based Dose Retest to Confirm Inhibitors of Cancer Stem Cells. [Related pubchem assays (depositor defined):AID2717, AID2721]; type: functional; conditions: Homo sapiens
Streptococcus = assay: GAS UMAA2166 growth inhibition – luminescence, BacTiterGlo, counter-screen for streptokinase expression inhibitor project, dose response (AID 1915); type: functional, organism-based;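 note: potency for reduction of bacterial viability or growth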

For `CCN(CC)c1ccc(N/C=C2\C(=O)NC(=O)N(c3ccc(Cl)cc3)C2=O)cc1`, the CC50 [1] was > 40 µM (active).

For `COc1c(F)c(F)c(C(=O)Nc2c(C)cc(Br)cc2C)c(F)c1F`, the CC50 [1] was 35.6 µM (active).

In the case of `Nc1nc(S)nc(O)c1/N=N\c1c(Br)cc(S(N)(=O)=O)cc1Br`, the AC50 (Cytochrome P450 2C19) is reported as “inconclusive”, the AC50 (Cytochrome P450 2C9) is reported as “inconclusive” and the AC50 (Cytochrome P450 1A2) is reported as 3.16 µM (inconclusive).

In the case of `CCN1C(=O)/C(=C\c2cn(-c3ccccc3)nc2-c2cccnc2)SC1=S`, the EC50 (BJ [2]) is reported as 7.41 µM (inconclusive), the EC50 (BJ [3]) is reported as > 150 µM (inconclusive) and the EC50 [4] is reported as 17.9 µM (active). The IC50 [5] was > 50 µM (not active) and the EC50 (BJ [6]) was > 150 µM (not active).

For `COc1cccc(-c2cc(NC=O)c3ncc(-c4cccc(C(=O)NCCN(C)C)c4)n3c2)c1`, the AC50 [7] was 22.3 µM (active) and the AC50 [8] was 3.43 µM (active).

With `COc1ccc(C(=O)C23CC4CC(C2)CC(C(=O)c2ccc(OC)cc2)(C4)C3)cc1` the IC50 [5] was < 0.4 µM (not active).

With `COc1ccc(N2C(=O)N(Cc3ccc(C)cc3)c3ccccc3S2(=O)=O)cc1` the IC50 [5] was 18.5 µM (not active).

For `Cc1ccc(OCc2nnc(S)n2C2CCCCC2)cc1`, the IC50 [5] was 38.6 µM (not active).

In the case of `CCC(=O)Nc1cc2c(cc1C(=O)c1ccccc1)OCCO2`, the AC50 (Cytochrome P450 2C9) is reported as “inconclusive”.

With `Cc1cccn2c(=O)c3cc(C(=O)NC4CCCC4)c(=N)n(CCCN4CCOCC4)c3nc12` the AC50 [7] was 21.5 µM (active) and the AC50 [8] was 9.37 µM (active).

For `COc1ccc(/C=C2\N=C(SC)N(c3ccccc3OC)C2=O)cc1`, the CC50 [1] was 37 µM (active).

For `Cc1ccsc1/C=N/Nc1nc2ccccc2s1`, the IC50 [9] was > 67.6 µM (inactive).

For `C[C@H](CO)N1C[C@H](C)[C@H](CN(C)C(=O)NC2CCCC2)Oc2cc(C#Cc3ccc(F)cc3)ccc2S1(=O)=O`, the AC50 [10] was 13.2 µM (active), the AC50 [11] was 24.5 µM (active) and the AC50 [12] was 24.9 µM (active).

In the case of `CCn1c(SCC(=O)NC2CCCCC2)nnc1-c1cc2cccc(OC)c2o1`, the IC50 (Protein skinhead-1) is reported as > 100 µM (inactive) and the AC50 (Cytochrome P450 2C9) is reported as “inconclusive”.

For `C[C@@H](NC(=O)/C(C#N)=C/c1ccc(O)c(O)c1)c1ccccc1`, the AC50 (Cytochrome P450 2C19; read-out: AC50) was 39.8 µM (inconclusive), the IC50 (Large T antigen) was 7.28 µM (active) and the AC50 (Cytochrome P450 2C9) was “inconclusive”.

In the case of `C=C(C)C1Cc2c(C)nn(-c3cccc4ccccc34)c2C1` (stereo not drawn), the EC50 (Streptokinase A) is reported as 16.8 µM (active), the EC50 [13] is reported as 7.08 µM (active) and the AC50 [14] is reported as 6.69 µM (active). For the same compound, the EC50 (Streptococcus) was > 150 µM (not active) and the CC50 [1] was > 40 µM (active).
